The values that follow come from ChEMBL document CHEMBL4813910, “Curse or Cure? A Perspective on the Developability of Aldehydes as Active Pharmaceutical Ingredients” (J Med Chem, 2020).

The nature of data set [1]: Cmax in human erythrocytes at 2.8 g, po by liquid chromatography-tandem mass spectrometry method. Set-up: route oral, dose 2.8 g. The class given is ADME, organism-based, Erythrocyte.
Data set [2] can be described thus: Clearance in human at 2.8 g, po by liquid chromatography-tandem mass spectrometry method. In kind it is ADME, organism-based. Particulars: in vivo.
A short description of data set [3]: Ratio of drug level in human erythrocytes to plasma at 2.8 g, po. In kind it is ADME.
Data set [4] is described as follows: Central volume of distribution in human at 2.8 g, po. In kind it is ADME. Particulars: in vivo.
Data set [5] can be described thus: Tmax in human erythrocytes at 2.8 g, po by liquid chromatography-tandem mass spectrometry method. In kind it is ADME, organism-based, Erythrocyte.
A short description of data set [6]: Cmax in human plasma at 2.8 g, po by liquid chromatography-tandem mass spectrometry method. The class given is ADME, organism-based. Set-up: route oral, dose 2.8 g.
Data set [7] can be described thus: Induction of hemoglobin modification in human at 900 mg/day.
Data set [8] can be described thus: AUC (0 to 24 hrs) in human plasma at 2.8 g, po by liquid chromatography-tandem mass spectrometry method. Set-up: time < 24 hr, route oral, dose 2.8 g. The class given is ADME, organism-based.
Data set [9] can be described thus: Tmax in human plasma at 2.8 g, po by liquid chromatography-tandem mass spectrometry method. The class given is ADME, organism-based.

Usually Cmax stands for the peak of the concentration-time curve. The term CL/F denotes the apparent clearance, not corrected for the fraction that reaches the circulation. What is called Kp is the ratio of the level in a tissue or fluid to that in plasma or blood. For orientation: Tmax means the time at which the peak concentration occurs. As usually defined, the AUC(0-t) is exposure summed from dosing to a finite time, without extrapolation to infinity. Lower therefore signals low exposure.

Molecules are shown by their SMILES.

Turning to `CC(C)n1nccc1-c1ncccc1COc1cccc(O)c1C=O` [VOXELOTOR], the results for the Cmax in [1] and in data set [6] were 1110 µM and 18.7 µM, respectively. The CL/F in [2] came to 5.4 mL/h/kg. Also, the Kp in data set [3] turned out to be 67. This molecule also yielded a Vc in data set [4] of 5.2 L/kg. The Tmax in data set [5] turned out to be 17.1 h; in data set [9] it was 7.1 h. This molecule also had an Activity in data set [7] of 40%. In data set [8], the AUC(0-t) at 24 h stood at 1280 µM·h.
